# From US9980943B2, “Methods of treating muscular dystrophy” (BOARD OF REGENTS OF THE NEVADA SYSTEM OF HIGHER EDUCATION, …, priority 2013, dated 2018)
# Columns and labels:
# Format in all cases: cell-based, mouse
# [1] = system: α7 integrin (LacZ reporter in α7βgal+/− myoblasts); assay: Myoblast α7+/LacZ integrin FDG assay (Burkin assay in myoblasts, 96-well); settings: 96-well; for Burkin Assay in Myoblasts, signal relative to DMSO: α7+/LacZ myoblasts; for Burkin Assay in Myoblasts, value relative to DMSO: SU9516 analogs, N=3-6
# [2] = system: α7 integrin (LacZ reporter in α7+/LacZ myotubes); assay: Myotube α7 integrin FDG assay (Burkin assay in myotubes, 96-well); settings: for Burkin Assay in Myotubes, value relative to DMSO: SU9516 analogs, 96-well, N=3-6
# [3] = system: β-galactosidase in CMV-LacZ C2C12 myoblasts; assay: CMV-LacZ secondary screen in C2C12 myoblasts (β-Gal stabilizing assay); settings: for CMV-LACZ in Myoblasts (β-galactosidase activity relative to DMSO): CMV-LacZ C2C12 myoblasts; for CMV-LACZ in Myoblasts, value relative to DMSO: SU9516 analogs, C2C12 CMV-LacZ, N=2
# Summary of the method: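 Stable CMV-LacZ C2C12 clone; six-point curve 0.5–40 μM; duplicates.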
# [4] = system: β-galactosidase in CMV-LacZ C2C12 myotubes; assay: CMV-LacZ secondary screen in C2C12 myotubes (β-Gal stabilizing assay); settings: for CMV-LACZ in Myotubes, signal relative to DMSO: C2C12 CMV-LacZ myotubes, fold relative to DMSO; for CMV-LACZ in Myotubes, value relative to DMSO: SU9516 analogs, C2C12 CMV-LacZ, N=2
# Summary of the method: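 β-gal stabilization was measured in C2C12 myoblasts or myotubes stably transfected with a CMV-driven LacZ construct, using the FDG β-gal assay. Compounds were tested in dose-response at 0.5, 1, 5, 10, 20 and 40 μM, with two replicates per point.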
smiles,measurement,setting,value
O=C(O)c1csc(-c2cccs2)n1 [MLS000760876-01],"Burkin Assay in Myoblasts, signal relative to DMSO",[1]; 0.5 uM,1.0287
same,"Burkin Assay in Myoblasts, signal relative to DMSO",[1]; 1 uM,0.9856
same,"Burkin Assay in Myoblasts, signal relative to DMSO",[1]; 5 uM,1.812
same,"Burkin Assay in Myoblasts, signal relative to DMSO",[1]; 10 uM,0.9113
same,"Burkin Assay in Myoblasts, signal relative to DMSO",[1]; 20 uM,1.102
same,"Burkin Assay in Myoblasts, signal relative to DMSO",[1]; 40 uM,0.9504
same,"Burkin Assay in Myotubes, α7 integrin LacZ reporter signal relative to DMSO",[2]; 0.5 uM,1.2427
same,"Burkin Assay in Myotubes, α7 integrin LacZ reporter signal relative to DMSO",[2]; 1 uM,1.256
same,"Burkin Assay in Myotubes, α7 integrin LacZ reporter signal relative to DMSO",[2]; 5 uM,1.249
same,"Burkin Assay in Myotubes, α7 integrin LacZ reporter signal relative to DMSO",[2]; 10 uM,0.9755
same,"Burkin Assay in Myotubes, α7 integrin LacZ reporter signal relative to DMSO",[2]; 20 uM,0.8634
same,"Burkin Assay in Myotubes, α7 integrin LacZ reporter signal relative to DMSO",[2]; 40 uM,0.8993
same,CMV-LACZ in Myoblasts (β-galactosidase activity relative to DMSO),[3]; 0.5 uM,0.9069
same,CMV-LACZ in Myoblasts (β-galactosidase activity relative to DMSO),[3]; 1 uM,1.0546
same,CMV-LACZ in Myoblasts (β-galactosidase activity relative to DMSO),[3]; 5 uM,0.8293
same,CMV-LACZ in Myoblasts (β-galactosidase activity relative to DMSO),[3]; 10 uM,0.8973
same,CMV-LACZ in Myoblasts (β-galactosidase activity relative to DMSO),[3]; 20 uM,0.9396
same,CMV-LACZ in Myoblasts (β-galactosidase activity relative to DMSO),[3]; 40 uM,0.8504
same,"CMV-LACZ in Myotubes, signal relative to DMSO",[4]; 0.5 uM,1.0248
same,"CMV-LACZ in Myotubes, signal relative to DMSO",[4]; 1 uM,1.1010
same,"CMV-LACZ in Myotubes, signal relative to DMSO",[4]; 5 uM,1.1074
same,"CMV-LACZ in Myotubes, signal relative to DMSO",[4]; 10 uM,0.9789
same,"CMV-LACZ in Myotubes, signal relative to DMSO",[4]; 20 uM,0.9482
same,"CMV-LACZ in Myotubes, signal relative to DMSO",[4]; 40 uM,1.2565
COc1ccc2c(c1)C(=C(C#N)C#N)C(=O)N2CCc1ccccc1 [MLS000763074-01],"Burkin Assay in Myoblasts, value relative to DMSO",[1]; 0.5 uM,1.199
same,"Burkin Assay in Myoblasts, value relative to DMSO",[1]; 1 uM,1.067
same,"Burkin Assay in Myoblasts, value relative to DMSO",[1]; 5 uM,0.843
same,"Burkin Assay in Myoblasts, value relative to DMSO",[1]; 10 uM,1.134
same,"Burkin Assay in Myoblasts, value relative to DMSO",[1]; 20 uM,0.6586
same,"Burkin Assay in Myoblasts, value relative to DMSO",[1]; 40 uM,0.6085
same,"Burkin Assay in Myotubes, value relative to DMSO",[2]; 0.5 uM,1.0274
same,"Burkin Assay in Myotubes, value relative to DMSO",[2]; 1 uM,1.128
same,"Burkin Assay in Myotubes, value relative to DMSO",[2]; 5 uM,1.043
same,"Burkin Assay in Myotubes, value relative to DMSO",[2]; 10 uM,0.907
same,"Burkin Assay in Myotubes, value relative to DMSO",[2]; 20 uM,0.1921
same,"Burkin Assay in Myotubes, value relative to DMSO",[2]; 40 uM,0.2622
same,"CMV-LACZ in Myoblasts, value relative to DMSO",[3]; 0.5 uM,0.8431
same,"CMV-LACZ in Myoblasts, value relative to DMSO",[3]; 1 uM,0.8256
same,"CMV-LACZ in Myoblasts, value relative to DMSO",[3]; 5 uM,1.1447
same,"CMV-LACZ in Myoblasts, value relative to DMSO",[3]; 10 uM,1.1966
same,"CMV-LACZ in Myoblasts, value relative to DMSO",[3]; 20 uM,1.2981
same,"CMV-LACZ in Myoblasts, value relative to DMSO",[3]; 40 uM,1.6644
same,"CMV-LACZ in Myotubes, value relative to DMSO",[4]; 0.5 uM,1.0089
same,"CMV-LACZ in Myotubes, value relative to DMSO",[4]; 1 uM,0.8593
same,"CMV-LACZ in Myotubes, value relative to DMSO",[4]; 5 uM,1.0487
same,"CMV-LACZ in Myotubes, value relative to DMSO",[4]; 10 uM,0.9645
same,"CMV-LACZ in Myotubes, value relative to DMSO",[4]; 20 uM,1.7671
same,"CMV-LACZ in Myotubes, value relative to DMSO",[4]; 40 uM,1.9682
Cc1cc([N+](=O)[O-])ccc1NC(=O)C(C)N1CCN(c2ccccn2)CC1 (stereo not drawn) [MLS000764729-01],"Burkin Assay in Myoblasts, signal relative to DMSO",[1]; 0.5 uM,1.088
same,"Burkin Assay in Myoblasts, signal relative to DMSO",[1]; 1 uM,1.0582
same,"Burkin Assay in Myoblasts, signal relative to DMSO",[1]; 5 uM,0.9816
same,"Burkin Assay in Myoblasts, signal relative to DMSO",[1]; 10 uM,0.9694
same,"Burkin Assay in Myoblasts, signal relative to DMSO",[1]; 20 uM,0.9581
same,"Burkin Assay in Myoblasts, signal relative to DMSO",[1]; 40 uM,0.726
same,"Burkin Assay in Myotubes, α7 integrin LacZ reporter signal relative to DMSO",[2]; 0.5 uM,1.055
same,"Burkin Assay in Myotubes, α7 integrin LacZ reporter signal relative to DMSO",[2]; 1 uM,1.084
same,"Burkin Assay in Myotubes, α7 integrin LacZ reporter signal relative to DMSO",[2]; 5 uM,1.008
same,"Burkin Assay in Myotubes, α7 integrin LacZ reporter signal relative to DMSO",[2]; 10 uM,0.972
same,"Burkin Assay in Myotubes, α7 integrin LacZ reporter signal relative to DMSO",[2]; 20 uM,0.681
same,"Burkin Assay in Myotubes, α7 integrin LacZ reporter signal relative to DMSO",[2]; 40 uM,0.6075
same,CMV-LACZ in Myoblasts (β-galactosidase activity relative to DMSO),[3]; 0.5 uM,0.9865
same,CMV-LACZ in Myoblasts (β-galactosidase activity relative to DMSO),[3]; 1 uM,0.9520
same,CMV-LACZ in Myoblasts (β-galactosidase activity relative to DMSO),[3]; 5 uM,1.0259
same,CMV-LACZ in Myoblasts (β-galactosidase activity relative to DMSO),[3]; 10 uM,0.8880
same,CMV-LACZ in Myoblasts (β-galactosidase activity relative to DMSO),[3]; 20 uM,1.1200
same,CMV-LACZ in Myoblasts (β-galactosidase activity relative to DMSO),[3]; 40 uM,0.7504
same,"CMV-LACZ in Myotubes, signal relative to DMSO",[4]; 0.5 uM,1.0358
same,"CMV-LACZ in Myotubes, signal relative to DMSO",[4]; 1 uM,1.1432
same,"CMV-LACZ in Myotubes, signal relative to DMSO",[4]; 5 uM,1.0779
same,"CMV-LACZ in Myotubes, signal relative to DMSO",[4]; 10 uM,0.9634
same,"CMV-LACZ in Myotubes, signal relative to DMSO",[4]; 20 uM,0.9656
same,"CMV-LACZ in Myotubes, signal relative to DMSO",[4]; 40 uM,1.1900
